Series [1] concerns HEK-293T-RGS2-FBXO44 NanoBit cells. Description: Cell viability assay (GF-AFC fluorescence) multiplexed with NanoBit. Type of series: cell-based, Human. The conditions noted are these: 100 μM, 16–18 hours, fresh powder. The protocol:
The cells were plated in DMEM without phenol red (Gibco, #21063), 0.1% BSA in a white, tissue culture-treated 384-well plate (Perkin Elmer) at 15,000 cells/well, unless indicated otherwise, and allowed to attach. The plate was centrifuged at 212 × g for 30 seconds to aid in even cell adherence. Compound treatments were initiated 4–5 hours after plating. Following indicated treatment times, media was removed from the plate using BioTek ELx405 plate washer. Additionally, 10 μL of Hank’s Balanced Salt solution (HBSS) with 0.1% BSA was added to each well, followed by 5 μL of glycyl-phenylalanyl-aminofluorocoumarin (GF-AFC; MP Biomedicals) diluted 1:1000 in 100 mM HEPES. Plates were then centrifuged at 212 × g for 30 seconds and then incubated at 37 °C for 30 minutes. Fluorescence was detected on a Synergy Neo2 multimode plate reader (BioTek/Agilent).
Our primary assay using the HEK-293T RGS2-FBXO44 NanoBit cell line was extensively optimized to ensure maximum quality for screening. Coupling a fluorescent cell viability assay with our screen would allow us to rule out cytotoxic compounds while also hopefully reducing outliers from pipetting errors while plating cells. Thus, we multiplexed our NanoBit assay with cell viability using a cell-permeable fluorogenic protease substrate (glycyl-phenylalanyl-aminofluorocoumarin; GF-AFC; [Niles et al, 2007]), which can be combined with a luminescent readout without interfering with the luciferase signal. We previously utilized a similar multiplexing strategy in several screens ([Sjögren et al, 2012]; [Raveh et al, 2014]; [Sjögren et al, 2015]). We assessed and optimized treatment conditions (time, temperature, and reagent volume), cell density, buffer composition, and DMSO tolerance. In addition to the supplied proprietary LCS buffer (Promega), we also tested DMEM, 0.1% BSA, PBS, and HBSS (Supplemental Fig. 1A–C). […] The luminescent signal was stable up to 45 minutes after reagent addition, and we chose to run subsequent assays using 20 minutes of incubation time (Supplemental Fig. 1E). We also observed no effect on either viability or luminescence signal at DMSO concentrations <1% (Data not shown).
HEK-293T-RGS2-FBXO44 NanoBit cells were treated for 16–18 hours with compound at 100 μM. This relatively high concentration was chosen because of the challenging nature of our assay (intracellular PPI inhibition). Parental HEK-293T cells were used as a negative control. […] Based on these criteria, 97 compounds were identified as hits from our primary screen (6.1% initial hit rate). To confirm hits, the same assay was repeated in triplicate, which delivered 34 compounds that reached the threshold for inhibition in at least 2 replicates with <25% cell toxicity (Fig. 2C; Supplemental Table 1), thus rendering a final hit rate of 2.1%.

Series [2] relates to RGS2 protein levels. Description: PathHunter ProLabel assay of RGS2 protein levels in HEK-293T-RGS2-PL cells. In kind it is cell-based, Human. As to conditions: for RGS2 protein levels (PathHunter ProLabel): 100 μM compound overnight (16–18 hours). The protocol:
The PathHunter ProLabel assay was run as described previously ([Sjögren et al, 2012]; [Raveh et al, 2014]; [Sjögren et al, 2015]). Briefly, HEK-293T-RGS2-PL cells were plated at 10,000 cells per well in a white, tissue culture-treated 384-well plate (Perkin Elmer) in DMEM without phenol red (#21063; Gibco) and 0.1% BSA. The cells were allowed to attach for 4 hours, followed by treatment with DMSO, 10 μM MG-132, or 100 μM of compounds. Prior to the detection of RGS2 protein levels by the ProLabel assay, a fluorescent viability assay was performed in the same well, as described above. PathHunter ProLabel reagents (DiscoveRx) were prepared according to the manufacturer’s directions and added to the plate, followed by incubation at room temperature for 1 hour. Luminescence corresponding to RGS2-PL protein levels was detected using a Synergy Neo2 multimode plate reader.
Compounds that inhibit the interaction between RGS2 and FBXO44 would protect RGS2 from proteasomal degradation and result in increased RGS2 protein levels. We therefore next assayed our 20 hits for their ability to increase RGS2 protein levels. We first performed western blot analysis of HEK-293T cells transfected with RGS2-HA and FLAG-FBXO44 and treated overnight (16–18 hours) with 100 μM compound, using proteasome inhibitor MG-132 as a positive control (10 μM). […] Although somewhat disappointing, given the limited sensitivity of western blot, we opted to also test the compounds using an alternate assay paradigm. Specifically, we used the PathHunter ProLabel assay (DiscoveRx), an enzyme complementation assay in which a protein of interest is tagged with a 4 kDa part of β-galactosidase (ProLabel; PL). The chemiluminescent signal in the assay correlates with relative levels of the PL-tagged target protein. We previously developed a stable HEK-293T-RGS2-PL cell line that was used in several high-throughput screening campaigns ([Sjögren et al, 2012]; [Raveh et al, 2014]; [Sjögren et al, 2015]). The PathHunter ProLabel assay offers a more quantitative measurement of protein levels, with a larger dynamic range than a western blot. We treated HEK-293T-RGS2-PL cells overnight (16–18 hours) with 100 μM compound and used 10 μM MG-132 as a positive control.
As a further validation of the action of compound 10, we assessed whether the ability to increase RGS2 protein levels was dependent on FBXO44 using the PathHunter ProLabel assay. HEK-293T-RGS2-PL cells transfected with either nontargeting (NT) or FBXO44-targeting siRNA were treated overnight (16–18 hours) with vehicle or compound 10 (100 μM). […] Thus, compound 10 increases RGS2 protein levels through a mechanism that is dependent on FBXO44.

Structures are written as SMILES.

For the compound `CCC1CCCCN1S(=O)(=O)c1cc(Br)ccc1OC` (stereo not shown) [Compound 10], the “Viability (% of Control)” value in series [1] was 69.3∗∗∗∗ % of Control. Besides, the “RGS2 protein levels (PathHunter ProLabel)” value in series [2] is recorded as “significantly increased RGS2 protein levels”; in series [2] (listed as compound 10), “significantly increased”. In addition, the “Ability to increase RGS2 protein levels after siRNA-mediated FBXO44 knockdown (PathHunter ProLabel)” value in series [2] (100 μM overnight, FBXO44-targeting vs nontargeting siRNA) is “diminished ability”.

These data come from PMC13095444, “Discovery of RGS2-FBXO44 interaction inhibitors using a cell-based NanoBit assay” (Molecular Pharmacology, 2025).
